Measurements as given in patent US20110160146A1, “Conjungation of Small Molecules to Octaarginine Transporters for Overcoming Multi-Drug Resistance” (National Institute of Health (NIH), priority 2008, published 2011).

What was measured:
MCF-7 = test: cells; details: Homo sapiens, MCF7, read-out: IC50 concentration
Protocol: (§1) After 72 hours, the cytotoxicity of the relevant compound was determined by an MTT based assay.
(§2) Cell Lines; SKOV-3 cells were obtained from ATCC; UCI-101 and UCI-107 cell lines were obtained from Drs. P. DiSaia and A. Manetta, University of California; MCF-7 and MCF-7-Pgp were obtained from Dr. D. Piwnica-Worms, Washington University; OVCA429, OVCA433 and the taxane resistant derivatives of these cells (OVCA429T, OVCA429TxT, OVCA433T and OVCA433TxT) were obtained from Dr. B. Sikic, Stanford University. All cells were grown in DMEM with 10% FBS.
(§3) Cell Cytotoxicity Assay. The cytotoxicity of relevant compounds was determined by IC50 assay. Cells were seeded overnight into 96-well plates, and then incubated with a serial dilution of the indicated compound for 20 min, before washing twice with fresh media, and incubation at 37° C. for 72 hr in drug-free media. The IC50 values were determined as the concentration of compound required to inhibit the viability of the cell layer by 50% relative to untreated, and cell-free control wells (100 and 0% viability respectively) determined from semi-logarithmic dose response curves. […] Bioluminescence was determined using an IVIS 50 system (Caliper Life Sciences, Alameda, Calif.). Each compound and dilution was tested in triplicate per experiment, with each experiment reproduced three times.

OVCA 429 = test: cells; details: Homo sapiens, OVCA429, read-out: IC50 concentration
Protocol: as §1, §2, §3

OVCA 433 = test: cells; details: Homo sapiens, OVCA433, read-out: IC50 concentration
Protocol: as §1, §2, §3

SKOV-3 = test: cells; details: Homo sapiens, SK-OV-3, read-out: IC50 concentration
Protocol: as §1, §2, §3

UCI-101 luc = test: cells; details: Homo sapiens, UCI101, read-out: IC50 concentration
Protocol: as §1, §2, §3

UCI-107 luc = test: cells; details: Homo sapiens, read-out: IC50 concentration
Protocol: as §1, §2, §3

OVCA 429TxT = test: cells; details: Homo sapiens, read-out: IC50 concentration
Protocol: as §1
(§4) Within the panel of human cancer cells, there were three sets of related sensitive and resistant cell lines, the latter based wholly or in part on Pgp-mediated efflux. These resistant lines were either created through stable transfection of MCF-7 cells with Pgp (MCF-7-Pgp), or by selection through exposure of OVCA429 and OVCA433 cells to taxol (OVCA429T and OVCA433T)^19 or taxotere (OVCA429TxT and OVCA433TxT), creating a complex MDR phenotype including Pgp upregulation.
as §2, §3

OVCA 429T = test: cells; details: Homo sapiens, read-out: IC50 concentration
Protocol: as §1, §4, §2, §3

OVCA 433TxT = test: cells; details: Homo sapiens, read-out: IC50 concentration
Protocol: as §1, §4, §2, §3

OVCA 433T = test: cells; details: Homo sapiens, read-out: IC50 concentration
Protocol: as §1, §4, §2, §3

MCF-7-pgp = test: Cell cytotoxicity assay (IC50), MCF-7-pgp; details: Homo sapiens, read-out: IC50 concentration
Protocol: as §1, §4, §2, §3

[1] = tested on: UCI-101 tumor cells expressing luciferase; test: Mouse tumor model, UCI-101 intraperitoneal xenograft; type: in vivo, mice; details: 10 mg/kg dose
Excerpt: (a) 1×10^7 UCI-101 tumor cells expressing luciferase were implanted into the peritoneal cavity of athymic nu/nu mice 7 days prior to treatment. […] For the purpose of these experiments TFA^− counteranions on both conjugates were exchanged to C. Subsequent tumor burden was followed by bioluminescence imaging (n=8/group). […] Tumor burden was followed by bioluminescence imaging. […] (n=8/group).
Mouse Tumor Models: Tumor xenografts were created by intraperitoneal injection of female athymic CD1 nu/nu or SCID mice with 1×10^7 cells. Versions of UCI-101, OVCA429 or OVCA429T cells were used expressing Firefly luciferase. […] Mice were then treated with three intraperitoneal injections (5 days apart) of 5 or 10 mg/kg taxol or equimolar dose equivalents of the taxol derivatives, or PBS as a control. For the purpose of these experiments TFA^− counteranions on both conjugates were exchanged to C. Subsequent tumor burden was followed by BLI. Once tumor burden reached 1×10^8 photons/sec/mouse the mice were euthanized.
Comparisons of survival (Kaplan-Meier) curves were made by the Wilcoxon-Rank test. Statistical significance was determined as p<0.05.

**Q.** What does the source list for `CC(=O)O[C@H]1C(=O)[C@@]2(C)[C@H]([C@H](OC(=O)c3ccccc3)[C@]3(O)C[C@H](OC(=O)[C@H](O)[C@@H](NC(=O)c4ccccc4)c4ccccc4)C(C)=C1C3(C)C)[C@]1(OC(C)=O)CO[C@@H]1C[C@@H]2O` [compound 1, Taxol, reference compound]?
**A.** IC50 (MCF-7): 171 nM; IC50 (OVCA 429): 147 nM; IC50 (OVCA 433): 294 nM; IC50 (SKOV-3): 29 nM; IC50 (UCI-101 luc): 246 nM; IC50 (UCI-107 luc): 320 nM; IC50 (OVCA 429TxT): 2520 nM; IC50 (OVCA 429T): 15800 nM; IC50 (OVCA 433TxT): 12400 nM; IC50 (OVCA 433T): 6180 nM; IC50 (MCF-7-pgp): 867 nM; complete responses [1]: 12.5%
